The record followed here is patent publication US8889878B2, “Haloalky-substituted amides as insecticides and acaricides” (Bayer CropScience AG, priority 2009, dated 2014).

Each structure is given as a SMILES string.

The subject of series [1] is Boophilus microplus. The series can be described thus: Boophilus microplus test (BOOPMI injection), Example 11. Type of series: in vivo. To be noted: application rate 20 μg/animal, injected into abdomen, after 7 days; for pest or weed control at 0.02 mg: Rhipicephalus microplus, 168 h, read-out: efficacy in % (fertile eggs laid). The essentials: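 Adult ticks injected in the abdomen with compound diluted in DMSO, then held in a climate-controlled room. Efficacy in % determined after 7 days from fertile eggs laid; 100% means no tick laid fertile eggs.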

Series [2] can be described thus: logP by HPLC on reverse-phase column (EEC Directive 79/831 Annex V.A8). Format: physicochemical. The settings on record: for chromatographic logP: reverse-phase C18 HPLC column, pH 2.7, HPLC, C18 reverse phase, 43° C., acidic range pH 2.7, calibration with alkan-2-ones; for logP: HPLC-MS. How it is done: The logP values reported in the above Tables and Preparation Examples were determined according to EEC Directive 79/831 Annex V.A8 by HPLC (High Performance Liquid Chromatography) on a reverse-phase column (C18). Temperature 43° C.

The subject of series [3] is Ctenocephalides felis. Description: Ctenocephalides felis oral (CTECFE), Example 12. Type of series: in vivo. To be noted: application rate 100 ppm in citrated cow's blood, after 2 days. As to the method: (§1) Ctenocephalides felis Oral ([…]) • Solvent: 1 part by weight of dimethyl sulphoxide For the purpose of preparing an appropriate active ingredient formulation, 10 mg of active ingredient are mixed with 0.5 ml of dimethyl sulphoxide. A portion of the concentrate is diluted with citrated cow's blood and the desired concentration is established. About 20 unfed adult fleas (Ctenocephalides felis) are placed into a chamber sealed at the top and bottom with gauze. A metal cylinder with its lower end sealed with Parafilm is placed onto the chamber. The cylinder contains the blood-active ingredient preparation, which can be consumed by the fleas through the Parafilm membrane. After 2 days, the kill rate in % is determined. 100% means that all fleas were killed; 0% means that no fleas were killed.

Series [4] deals with Boophilus microplus. The series can be described thus: Boophilus microplus test (BOOPMI injection), Example 1. Type of series: in vivo. The settings on record: application rate 20 μg/animal, injected into abdomen, after 7 days. The essentials: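 Compound in DMSO, diluted with water, injected into the abdomen of engorged ticks, which were then held in a climate-controlled room. Efficacy was scored after 7 days from fertile egg laying, with 100% meaning no tick laid fertile eggs.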

For series [5], the system named is mustard beetle (Phaedon cochleariae). The series can be described thus: Phaedon test (PHAECO spray treatment), Example 16. The settings on record: application rate 500 g/ha, china cabbage leaf discs sprayed, after the desired time; for pest or weed control at 500 g/ha: Phaedon cochleariae, foliar, read-out: efficacy in %. Type of series: in vivo. The essentials: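 Chinese cabbage leaf discs sprayed with acetone/DMF-emulsifier formulation of active ingredient diluted in emulsifier-containing water, then infested with mustard beetle larvae after drying. Efficacy scored as % larval kill (100% = all killed, 0% = none) after the chosen time.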

Series [6] relates to Musca domestica adults. Description: Musca domestica test (MUSCDO), Example 14. Type of series: in vivo. The settings on record: application rate 100 ppm, treated sponge, after 2 days. The essentials:
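Compound dissolved in DMSO and diluted in water to the test concentration, then applied to a sponge in vessels holding adult flies. Percent kill scored after 2 days (100% = all flies dead).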

The test system of series [7] is green peach aphid (Myzus persicae). Description: Myzus test (MYZUPE spray treatment), Example 5. Type of series: in vivo. To be noted: application rate 20 g/ha, china cabbage leaf discs sprayed, after 6 days. As to the method:
Myzus Test (MYZUPE Spray Treatment)
• Solvent: 78 parts by weight of acetone • 1.5 parts by weight of dimethylformamide • Emulsifier: 0.5 part by weight of alkylaryl polyglycol ether
To prepare an active ingredient formulation, 1 part by weight of active ingredient is mixed with the stated amounts of solvent and emulsifier, and the concentrate is diluted with emulsifier-containing water to the desired concentration. Leaf discs from china cabbage (Brassica pekinensis) infested by all stages of the green peach aphid (Myzus persicae) are sprayed with an active ingredient formulation of the desired concentration.
After 6 days, the efficacy in % is determined. 100% means that all aphids were killed; 0% means that no aphids were killed.

Series [8] deals with Ctenocephalides felis. The series can be described thus: Ctenocephalides felis oral (CTECFE), Example 2. Type of series: in vivo. To be noted: application rate 20 ppm in citrated cow's blood, after 2 days. How it is done:
as §1, with “an” for “an appropriate”, “concentrate was” for “concentrate is”, “concentration was prepared.” for “concentration is established. About”

For series [9], the system named is green peach aphid (Myzus persicae). The series can be described thus: Myzus test (MYZUPE spray treatment), Example 17. Format: in vivo. The settings on record: china cabbage leaf discs sprayed, after 6 days. The essentials:
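Chinese cabbage leaf discs infested with all aphid stages were sprayed with compound formulated in acetone/dimethylformamide plus alkylaryl polyglycol ether emulsifier, diluted in emulsifier-containing water. Mortality read after 6 days as % efficacy (100% all killed, 0% none killed).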

The subject of series [10] is Lucilia cuprina larvae. Description: Lucilia cuprina test (LUCICU), Example 3. The settings on record: application rate 20 ppm, treated horsemeat, after 2 days. Type of series: in vivo. How it is done: Lucilia cuprina Test (LUCICU) • Solvent: dimethyl sulphoxide To prepare an active ingredient formulation, 10 mg of active ingredient are mixed with 0.5 ml of dimethyl sulphoxide, and the concentrate is diluted with water to the desired concentration. Vessels containing horsemeat which has been treated with the active ingredient formulation of the desired concentration are populated with Lucilia cuprina larvae. After 2 days, the kill rate in % is determined. 100% means that all larvae were killed; 0% means that no larvae were killed.

Series [11] concerns mustard beetle (Phaedon cochleariae). Description: Phaedon test (PHAECO spray treatment), Example 7. To be noted: application rate 20 g/ha, china cabbage leaf discs sprayed, after 7 days. Type of series: in vivo. The essentials: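 Spray formulation (acetone/DMF with alkylaryl polyglycol ether, diluted in emulsifier-containing water) applied to Chinese cabbage leaf discs, which were dried and then stocked with mustard beetle larvae. Efficacy scored at 7 days as % larvae killed (100% all, 0% none).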

In series [12] the test system is red spider mite (Tetranychus urticae). Description: Tetranychus test, OP-resistant (TETRUR spray treatment), Example 8. The settings on record: application rate 20 g/ha, common bean leaf discs sprayed, after 6 days. Format: in vivo. The essentials: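 Bean (Phaseolus vulgaris) leaf discs carrying all stages of OP-resistant Tetranychus urticae sprayed with compound in acetone/DMF with emulsifier, diluted in water to the test concentration. Mortality scored after 6 days as % efficacy (100% = all mites killed).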

Series [13] shares this test system. The series can be described thus: Tetranychus test; OP-resistant (TETRUR spray treatment), Example 18. Format: in vivo. To be noted: application rate 500 g/ha, common bean leaf discs sprayed, after 6 days. How it is done: Tetranychus Test; OP-Resistant (TETRUR Spray Treatment)
• Solvent: 78.0 parts by weight of acetone • 1.5 parts by weight of dimethylformamide • Emulsifier: 0.5 part by weight of alkylaryl polyglycol ether
To prepare an appropriate active ingredient formulation, 1 part by weight of active ingredient is mixed with the stated amounts of solvent and emulsifier, and the concentrate is diluted with emulsifier-containing water to the desired concentration. Leaf discs from the common bean (Phaseolus vulgaris) infested by all stages of the red spider mite (Tetranychus urticae) are sprayed with an active ingredient formulation of the desired concentration.
After 6 days, the efficacy in % is determined. 100% means that all spider mites were killed; 0% means that no spider mites were killed.

Series [14] relates to armyworm (Spodoptera frugiperda). Description: Spodoptera frugiperda test (SPODFR spray treatment), Example 15. Format: in vivo. The settings on record: maize leaf discs sprayed, after 7 days. The essentials: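 Maize leaf discs sprayed with active ingredient in acetone/DMF with alkylaryl polyglycol ether emulsifier, diluted in water, then populated with caterpillars after drying. Efficacy in % after 7 days: 100% all caterpillars killed, 0% none.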

For series [15], the system named is Boophilus microplus females of the SP-resistant Parkhurst strain. The series can be described thus: Boophilus microplus test (DIP), Example 10. Format: in vivo. To be noted: application rate 100 ppm, after 7 days. As to the method: Boophilus microplus Test (DIP)
Test animals: adult engorged Boophilus microplus females of the SP-resistant Parkhurst strain • Solvent: dimethyl sulphoxide
10 mg of active ingredient are dissolved in 0.5 ml of dimethyl sulphoxide. For the purpose of preparing a suitable formulation, the active ingredient solution is diluted with water to the concentration desired in each case.
This active ingredient formulation is pipetted into tubes. 8-10 ticks are transferred into a further tube with holes. The tube is immersed into the active ingredient formulation, and all ticks are completely wetted. After the liquid has run out, the ticks are transferred onto filter discs in plastic dishes and stored in a climate-controlled room. The efficacy is assessed after 7 days by the number of fertile eggs laid. Eggs whose fertility is not outwardly visible are stored in glass tubes in a climate-controlled cabinet until the larvae hatch. Efficacy of 100% means that none of the ticks has laid any fertile eggs.

In the case of `O=C(/C=C/c1cccc(NC(=O)c2cccnc2Cl)c1)NC(c1cccc(C(F)(F)F)c1)C(F)(F)F` (centres unmarked) [Ia-5, 2-Chloro-N-{3-[(1E)-3-oxo-3-({2,2,2-trifluoro-1-[3-(trifluoromethyl)phenyl]ethyl}amino)prop-1-en-1-yl]phenyl}nicotinamide], in series [1], the pest or weed control at 0.02 mg was found to be 100%. Further, the chromatographic logP in series [2] came to 3.39. For the same compound, the “kill rate in % (efficacy)” value in series [3] was 80%. In addition, the “efficacy in % (fertile eggs laid)” value in [4] is 100%. In addition, in [5], the pest or weed control at 500 g/ha was found to be 100%.

Turning to `Cc1cc(/C=C/C(=O)NC(c2cccc(C(F)(F)F)c2)C(F)(F)F)ccc1C(=O)NCC(F)(F)F` (centres unmarked) [Ia-18], the “kill rate in % (efficacy)” value in series [6] is listed as 90%; in series [3], 98%. The “efficacy in % (fertile eggs laid)” value in [1] was found to be 100%. For the same compound, in [2], the logP result is “HPLC-MS: logP = 3.56; mass”.

Consider `O=C(/C=C/c1ccc(C(=O)NCc2ccccn2)c(Br)c1)NC(c1cccc(C(F)(F)F)c1)C(F)(F)F` (centres unmarked) [Ia-41], for which the efficacy in % in series [7] stood at 100%; in [9] (application rate 500 g/ha), 90%; in series [11] it was 100%; in [12] it was 100%. The results for the “kill rate in % (efficacy)” value in series [8] and in series [10] were 100% and 90%, respectively. In addition, the “efficacy in % (fertile eggs laid)” value in series [1] and in [4] was 100% each time. In [2], the logP entry was “HPLC-MS: logP = 2.76; mass”.

Turning to `CC(CF)NC(=O)c1ccc(/C=C/C(=O)NC(c2cccc(C(F)(F)F)c2)C(F)(F)F)cc1C(F)(F)F` (centres unmarked) [Ia-75, N-(1-Fluoropropan-2-yl)-4-[(1E)-3-oxo-3-({2,2,2-trifluoro-1-[3-(trifluoromethyl)phenyl]-ethyl}amino)prop-1-en-1-yl]-2-(trifluoromethyl)benzamide], the figures for the efficacy in % in [7], in series [11] and in series [12] were 80%, 100% and 100%, respectively. The pest or weed control at 500 g/ha in series [13] (Tetranychus urticae, foliar, 144 h, read-out: efficacy in %) is 100%; in series [14] (Spodoptera frugiperda, foliar, 168 h, application rate 500 g/ha, read-out: efficacy in %), 100%; in series [5] it was 100%. The pest or weed control at 0.02 mg in series [1] came to 100%. In [2], this compound returned a chromatographic logP of 3.37.

On to `Cn1cnc(CNC(=O)c2ccc(/C=C/C(=O)NC(c3cccc(C(F)(F)F)c3)C(F)(F)F)cc2C(F)(F)F)c1` (centres unmarked) [Ia-76], for which, in [11], the efficacy in % is reported as 100%. Also, the “efficacy in % (fertile eggs laid)” value in series [1] and in [4] was 100% throughout. Moreover, the logP entry in series [2] was “HPLC-MS: logP = 1.72; mass”. Moreover, the “kill rate in % (efficacy)” value in series [3] was found to be 80%.

`Cc1cc(/C=C/C(=O)NC(c2cccc(C(F)(F)F)c2)C(F)(F)F)ccc1C(=O)NCC(F)F` (centres unmarked) [Ia-100]: the efficacy in % entry in series [13] is “Ia-100%”; in series [11] it was 100%; in series [14] (application rate 500 g/ha) it was “Ia-100%”; in series [5], “Ia-100%”; in [12], 80%. Besides, the logP result in series [2] is listed as “HPLC-MS: logP = 3.13 mass”.

As to `CC(NC(=O)c1ccc(/C=C/C(=O)NC(c2cccc(C(F)(F)F)c2)C(F)(F)F)cc1Cl)C1CC1` (centres unmarked) [Ia-114], the efficacy in % in [11] and in [12] was 100% each time. Further, the results for the “efficacy in % (fertile eggs laid)” value in series [1] and in [15] were 100% and 85%, respectively. Besides, the logP result in series [2] is on record as “HPLC-MS: logP = 3.68 mass”.

With `Cc1cc(/C=C/C(=O)NC(c2cccc(C(F)(F)F)c2)C(F)(F)F)ccc1C(=O)NCCC1CC1` (centres unmarked) [Ia-115], the efficacy in % in series [7] amounted to 90%; in series [9] (application rate 100 g/ha) it was 100%; in series [11] it was 100%; in [12] it was 90%. Also, in [2], the logP result is listed as “HPLC-MS: logP = 3.61 mass”.

Consider `C#CC(C)(C)NC(=O)c1ccc(/C=C/C(=O)NC(c2cccc(C(F)(F)F)c2)C(F)(F)F)cc1C(F)(F)F` (centres unmarked) [Ia-146], for which the efficacy in % in [14] (application rate 100 g/ha) was determined as 100%. Further, the “efficacy in % (fertile eggs laid)” value in [1] is 100%. Besides, the logP entry in [2] is reported as “HPLC-MS: logP = 3.8; mass”. The “kill rate in % (efficacy)” value in [3] was found to be 90%.

Consider `O=C(/C=C/c1ccc(C(=O)NC(CF)CF)c(Cl)c1)NC(c1cccc(C(F)(F)F)c1)C(F)(F)F` (centres unmarked) [Ia-155], for which the efficacy in % is reported as 100% in series [9] (application rate 100 g/ha) and 83% in series [14] (application rate 100 g/ha). Further, the “efficacy in % (fertile eggs laid)” value is reported as 100% in series [1] and 90% in [15]. Besides, in [2], the logP result is “HPLC-MS: logP = 3.36; mass”.
